Experimental data as given in ChEMBL document CHEMBL4138105, “LL-37-derived short antimicrobial peptide KR-12-a5 and its d-amino acid substituted analogs with cell selectivity, anti-biofilm activity, synergistic effect with conventional antibiotics, and anti-inflammatory activity” (Eur J Med Chem, 2017).
Converted amounts (≈) assume the structure as drawn. The source made the active and inactive calls. No cut-off for these calls is given here.

How the values were obtained:
Pseudomonas aeruginosa [1] = assay: Potency index, ratio of LL-37 MBIC90 to compound MBIC90 for antibiofilm activity against multidrug-resistant Pseudomonas aeruginosa CCARM 2095; format: functional
Staphylococcus aureus [2] = assay: Potency index, ratio of LL-37 MIC to compound MIC for methicillin resistant Staphylococcus aureus CCARM 3095; format: functional
RAW264.7 [3] = assay: Anti-inflammatory activity in mouse RAW264.7 cells assessed as reduction in LPS-induced TNF-alpha mRNA expression at 10 uM after 3 hrs by RT-PCR analysis; format: functional, cell-based
Pseudomonas aeruginosa [4] = assay: Antibacterial activity against Pseudomonas aeruginosa KCTC 1637 after 24 hrs; format: functional; conditions: KCTC 1637, 24 h
RAW264.7 [5] = assay: Anti-inflammatory activity in mouse RAW264.7 cells assessed as reduction in LPS-induced IL-6 mRNA expression at 10 uM after 3 hrs by RT-PCR analysis; format: functional, cell-based
Pseudomonas aeruginosa [6] = assay: Potency index, ratio of melittin MIC to compound MIC for multidrug-resistant Pseudomonas aeruginosa CCARM 2095; format: functional
Pseudomonas aeruginosa [7] = assay: Antibacterial activity against multidrug-resistant Pseudomonas aeruginosa CCARM 2109 after 24 hrs; format: functional; conditions: CCARM 2109, 24 h
Staphylococcus aureus [8] = assay: Potency index, ratio of LL-37 MIC to compound MIC for methicillin resistant Staphylococcus aureus CCARM 3089; format: functional
Pseudomonas aeruginosa [9] = assay: Antibacterial activity against multidrug-resistant Pseudomonas aeruginosa CCARM 2095 after 24 hrs; format: functional; conditions: CCARM 2095, 24 h
Escherichia coli [10] = assay: Antibacterial activity against Escherichia coli KCTC 1682 in presence of 6 uM NH4Cl after 24 hrs; format: functional; conditions: KCTC 1682, 24 h
Staphylococcus aureus [11] = assay: Antibacterial activity against methicillin resistant Staphylococcus aureus CCARM 3089 after 24 hrs; format: functional; conditions: CCARM 3089, 24 h
RAW264.7 [12] = assay: Anti-inflammatory activity in mouse RAW264.7 cells assessed as reduction in LPS-induced IL-6 production at 10 to 20 uM preincubated for 1 hr followed by LPS stimulation measured after 6 hrs by ELISA; format: functional, cell-based
Escherichia coli [13] = assay: Antibacterial activity against Escherichia coli KCTC 1682 in presence of 1 mM MgCl2 after 24 hrs; format: functional; conditions: KCTC 1682, 24 h
NIH3T3 = assay: Cytotoxicity against mouse NIH/3T3 cells up to 128 uM after 48 hrs by MTT assay; format: cell-based; conditions: nih3t3, 48 h
Staphylococcus aureus [14] = assay: Antibacterial activity against Staphylococcus aureus KCTC 1621 in presence of 1 mM MgCl2 after 24 hrs; format: functional; conditions: KCTC 1621, 24 h
Pseudomonas aeruginosa [15] = assay: Potency index, ratio of LL-37 MIC to compound MIC for multidrug-resistant Pseudomonas aeruginosa CCARM 2095; format: functional
RAW264.7 [16] = assay: Anti-inflammatory activity in mouse RAW264.7 cells assessed as reduction in LPS-induced MCP-1 mRNA expression at 10 uM after 3 hrs by RT-PCR analysis; format: functional, cell-based
[17] = tested on: Staphylococcus epidermidis; assay: Antibacterial activity against Staphylococcus epidermidis KCTC 1917 after 24 hrs; format: functional; conditions: KCTC 1917, 24 h
Pseudomonas aeruginosa [18] = assay: Synergistic antibacterial activity against multidrug-resistant Pseudomonas aeruginosa CCARM 2095 after 72 hrs in presence of oxacillin by chequerboard assay; format: functional
Pseudomonas aeruginosa [19] = assay: Antibiofilm activity against multidrug-resistant Pseudomonas aeruginosa CCARM 2095 after 24 hrs by crystal violet staining based assay; format: functional
Escherichia coli [20] = assay: Antibacterial activity against Escherichia coli KCTC 1682 in presence of 4.5 mM KCl after 24 hrs; format: functional; conditions: KCTC 1682, 24 h
Escherichia coli [21] = assay: Antibacterial activity against Escherichia coli KCTC 1682 in presence of 150 mM NaCl after 24 hrs; format: functional; conditions: KCTC 1682, 24 h
Bacillus subtilis = assay: Antibacterial activity against Bacillus subtilis KCTC 3068 after 24 hrs; format: functional; conditions: KCTC 3068, 24 h
Staphylococcus aureus [22] = assay: Antibacterial activity against Staphylococcus aureus KCTC 1621 after 24 hrs; format: functional; conditions: KCTC 1621, 24 h
Pseudomonas aeruginosa [23] = assay: Potency index, ratio of LL-37 MIC to compound MIC for multidrug-resistant Pseudomonas aeruginosa CCARM 2109; format: functional
Staphylococcus aureus [24] = assay: Antibacterial activity against Staphylococcus aureus KCTC 1621 in presence of 4.5 mM KCl after 24 hrs; format: functional; conditions: KCTC 1621, 24 h
Staphylococcus aureus [25] = assay: Antibacterial activity against methicillin resistant Staphylococcus aureus CCARM 3095 after 24 hrs; format: functional; conditions: CCARM 3095, 24 h
Pseudomonas aeruginosa [26] = assay: Potency index, ratio of melittin MIC to compound MIC for multidrug-resistant Pseudomonas aeruginosa CCARM 2109; format: functional
Erythrocyte = assay: Hemolytic activity in human RBC after 1 hr; format: ADME, cell-based
Staphylococcus aureus [27] = assay: Antibacterial activity against Staphylococcus aureus KCTC 1621 in presence of 150 mM NaCl after 24 hrs; format: functional; conditions: KCTC 1621, 24 h
[28] = Therapeutic index, ratio of MHC10 for human RBC to MIC for Escherichia coli KCTC 1682; format: toxicity; conditions: red blood cells (RBC), pooled result: one value given for 6 cell lines, strains, targets or settings, read-out: TI
Staphylococcus aureus [29] = assay: Ratio of MIC for Staphylococcus aureus KCTC 1621 in presence of 20% human serum to MIC for Escherichia coli KCTC 1682 in presence of 20% human serum; format: functional
RAW264.7 [30] = assay: Anti-inflammatory activity in mouse RAW264.7 cells assessed as reduction in LPS-induced nitric oxide production at 10 to 20 uM after 24 hrs by Griess assay; format: functional, cell-based
Staphylococcus aureus [31] = assay: Potency index, ratio of melittin MIC to compound MIC for methicillin resistant Staphylococcus aureus CCARM 3089; format: functional
Staphylococcus aureus [32] = assay: Potency index, ratio of melittin MIC to compound MIC for methicillin resistant Staphylococcus aureus CCARM 3090; format: functional
Staphylococcus aureus [33] = assay: Antibacterial activity against Staphylococcus aureus KCTC 1621 in presence of 2.5 mM CaCl2 after 24 hrs; format: functional; conditions: KCTC 1621, 24 h
Salmonella typhimurium = assay: Antibacterial activity against Salmonella typhimurium KCTC 11926 after 24 hrs; format: functional, Salmonella enterica subsp. enterica serovar Typhimurium; conditions: Salmonella enterica, KCTC 11926, 24 h
Staphylococcus aureus [34] = assay: Antibacterial activity against Staphylococcus aureus KCTC 1621 assessed as cytoplasmic membrane depolarization at 2 times MIC by disC3-5 dye based fluorescence assay; format: functional, organism-based
Staphylococcus aureus [35] = assay: Potency index, ratio of melittin MIC to compound MIC for methicillin resistant Staphylococcus aureus CCARM 3095; format: functional
[36] = Binding affinity to EYPC/cholesterol small unilamellar vesicles assessed as intrinsic tryptophan acrylamide quenching constant by fluorescence assay (reference value: 5.95 to 7.56 /M)
Lipid bilayer = assay: Binding affinity to EYPE/EYPG small unilamellar vesicles assessed as intrinsic tryptophan acrylamide quenching constant by fluorescence assay (reference value: 5.95 to 7.56 /M)
Staphylococcus aureus [37] = assay: Antibacterial activity against Staphylococcus aureus KCTC 1621 in presence of 20% human serum after 24 hrs; format: functional; conditions: KCTC 1621, 24 h
Staphylococcus aureus [38] = assay: Antibacterial activity against Staphylococcus aureus KCTC 1621 assessed as cell membrane disruption at 2 times MIC within 4 mins by Sytox Green dye based fluorescence spectrophotometer assay; format: functional, organism-based
Enterococcus faecium [39] = assay: Potency index, ratio of melittin MIC to compound MIC for Vancomycin-resistant Enterococcus faecium ATCC 51559; format: functional
Enterococcus faecium [40] = assay: Potency index, ratio of LL-37 MIC to compound MIC for Vancomycin-resistant Enterococcus faecium ATCC 51559; format: functional

SMILES: CC[C@H](C)[C@H](NC(=O)[C@H](CCCNC(=N)N)NC(=O)[C@@H](N)CCCCN)C(=O)N[C@H](C(=O)N[C@@H](CCCCN)C(=O)N[C@@H](CC(C)C)C(=O)N[C@H](CC(C)C)C(=O)N[C@@H](CC(C)C)C(=O)N[C@@H](CCCCN)C(=O)N[C@@H](Cc1c[nH]c2ccccc12)C(=O)N[C@@H](CC(C)C)C(=O)N[C@@H](CCCNC(=N)N)C(N)=O)C(C)C
- fold change (FC) (Pseudomonas aeruginosa [1]): 4 - 8
- Ratio (Staphylococcus aureus [2]): 2 - 4
- Activity (RAW264.7 [3]): Active
- MIC (Pseudomonas aeruginosa [4]): 8 µM (≈ 12.5 µg/mL)
- Activity (RAW264.7 [5]): Active
- Ratio (Pseudomonas aeruginosa [6]): 2 - 4
- MIC (Pseudomonas aeruginosa [7]): 4 µM (≈ 6.26 µg/mL)
- Ratio (Staphylococcus aureus [8]): 2 - 4
- MIC (Pseudomonas aeruginosa [9]): 8 µM (≈ 12.5 µg/mL)
- MIC (Escherichia coli [10]): 4 µM
- MIC (Staphylococcus aureus [11]): 4 µM (≈ 6.26 µg/mL)
- Activity (RAW264.7 [12]): Active
- MIC (Escherichia coli [13]): 8 µM
- Activity (NIH3T3): Non-Toxic
- MIC (Staphylococcus aureus [14]): 8 µM
- Ratio (Pseudomonas aeruginosa [15]): 2 - 4
- Activity (RAW264.7 [16]): Active
- MIC [17]: 4 µM (≈ 6.26 µg/mL)
- fractional inhibitory concentration index (FICI) (Pseudomonas aeruginosa [18]): 0.3125
- MBIC90 (Pseudomonas aeruginosa [19]): 8 µM
- MIC (Escherichia coli [20]): 4 µM
- MIC (Escherichia coli [21]): 4 µM
- MIC (Bacillus subtilis): 2 µM (≈ 3.13 µg/mL)
- MIC (Staphylococcus aureus [22]): 2 µM (≈ 3.13 µg/mL)
- Ratio (Pseudomonas aeruginosa [23]): 2 - 4
- MIC (Staphylococcus aureus [24]): 2 µM
- MIC (Staphylococcus aureus [25]): 4 µM (≈ 6.26 µg/mL)
- Ratio (Pseudomonas aeruginosa [26]): 2 - 4
- MHC10 (Erythrocyte): 111 µM
- MIC (Staphylococcus aureus [27]): 4 µM
- selectivity ratio [28]: 30
- Ratio (Staphylococcus aureus [29]): 2 - 8
- Activity (RAW264.7 [30]): Active
- Ratio (Staphylococcus aureus [31]): 2 - 4
- Ratio (Staphylococcus aureus [32]): 2 - 4
- MIC (Staphylococcus aureus [33]): 4 µM
- MIC (Salmonella typhimurium): 2 µM (≈ 3.13 µg/mL)
- Activity (Staphylococcus aureus [34]): Active
- Ratio (Staphylococcus aureus [35]): 2 - 4
- KSV [36]: 2.98 M⁻¹
- KSV (Lipid bilayer): 1.01 M⁻¹
- MIC (Staphylococcus aureus [37]): 16 µM
- Activity (Staphylococcus aureus [38]): Active
- Ratio (Enterococcus faecium [39]): 2 - 4
- Ratio (Enterococcus faecium [40]): 2 - 4

SMILES: CC[C@H](C)[C@H](NC(=O)[C@H](CCCNC(=N)N)NC(=O)[C@@H](N)CCCCN)C(=O)N[C@H](C(=O)N[C@@H](CCCCN)C(=O)N[C@H](CC(C)C)C(=O)N[C@H](C(=O)N[C@@H](CC(C)C)C(=O)N[C@@H](CCCCN)C(=O)N[C@@H](Cc1c[nH]c2ccccc12)C(=O)N[C@@H](CC(C)C)C(=O)N[C@@H](CCCNC(=N)N)C(N)=O)[C@@H](C)CC)C(C)C
- fold change (FC) (Pseudomonas aeruginosa [1]): 4 - 8
- Ratio (Staphylococcus aureus [2]): 2 - 4
- Activity (RAW264.7 [3]): Active
- MIC (Pseudomonas aeruginosa [4]): 4 µM (≈ 6.26 µg/mL)
- Activity (RAW264.7 [5]): Active
- Ratio (Pseudomonas aeruginosa [6]): 2 - 4
- MIC (Pseudomonas aeruginosa [7]): 4 µM (≈ 6.26 µg/mL)
- Ratio (Staphylococcus aureus [8]): 2 - 4
- MIC (Pseudomonas aeruginosa [9]): 8 µM (≈ 12.5 µg/mL)
- MIC (Escherichia coli [10]): 4 µM
- MIC (Staphylococcus aureus [11]): 4 µM (≈ 6.26 µg/mL)
- Activity (RAW264.7 [12]): Active
- MIC (Escherichia coli [13]): 4 µM
- Activity (NIH3T3): Non-Toxic
- MIC (Staphylococcus aureus [14]): 4 µM
- Ratio (Pseudomonas aeruginosa [15]): 2 - 4
- Activity (RAW264.7 [16]): Active
- MIC [17]: 4 µM (≈ 6.26 µg/mL)
- fractional inhibitory concentration index (FICI) (Pseudomonas aeruginosa [18]): 0.5
- MBIC90 (Pseudomonas aeruginosa [19]): 16 µM
- MIC (Escherichia coli [20]): 4 µM
- MIC (Escherichia coli [21]): 4 µM
- MIC (Bacillus subtilis): 4 µM (≈ 6.26 µg/mL)
- MIC (Staphylococcus aureus [22]): 2 µM (≈ 3.13 µg/mL)
- Ratio (Pseudomonas aeruginosa [23]): 2 - 4
- MIC (Staphylococcus aureus [24]): 2 µM
- MIC (Staphylococcus aureus [25]): 4 µM (≈ 6.26 µg/mL)
- Ratio (Pseudomonas aeruginosa [26]): 2 - 4
- MHC10 (Erythrocyte): 202 µM
- MIC (Staphylococcus aureus [27]): 8 µM
- selectivity ratio [28]: 61.2
- Ratio (Staphylococcus aureus [29]): 2 - 8
- Activity (RAW264.7 [30]): Active
- Ratio (Staphylococcus aureus [31]): 2 - 4
- Ratio (Staphylococcus aureus [32]): 2 - 4
- MIC (Staphylococcus aureus [33]): 8 µM
- MIC (Salmonella typhimurium): 2 µM (≈ 3.13 µg/mL)
- Activity (Staphylococcus aureus [34]): Active
- Ratio (Staphylococcus aureus [35]): 2 - 4
- KSV [36]: 2.9 M⁻¹
- KSV (Lipid bilayer): 0.97 M⁻¹
- MIC (Staphylococcus aureus [37]): 16 µM
- Activity (Staphylococcus aureus [38]): Active
- Ratio (Enterococcus faecium [39]): 2 - 4
- Ratio (Enterococcus faecium [40]): 2 - 4
